# Test results taken from the NIST ThermoML archive (doi:10.1021/je060271a).
# ± gives the expanded uncertainty stated by the source.
# Details: 323.14 K, Liquid, Vibrating tube method
smiles,measurement,setting,value
CCCCCC(=O)OCC(COC(=O)CCCCC)(COC(=O)CCCCC)COC(=O)CCCCC [pentaerythritol tetrahexanoate],mass density,916.7 kPa,973.3 ± 1.2 kg/m3
same,mass density,923.3 kPa,973.2 ± 1.2 kg/m3
same,mass density,1440.1 kPa,973.7 ± 1.2 kg/m3
same,mass density,1446.1 kPa,973.7 ± 1.2 kg/m3
same,mass density,1451.7 kPa,973.5 ± 1.2 kg/m3
same,mass density,1458.6 kPa,973.7 ± 1.2 kg/m3
same,mass density,1465.1 kPa,973.6 ± 1.2 kg/m3
same,mass density,1499.4 kPa,973.7 ± 1.2 kg/m3
same,mass density,2143.7 kPa,974.1 ± 1.2 kg/m3
same,mass density,2154.2 kPa,974.2 ± 1.2 kg/m3
same,mass density,2163.4 kPa,974.2 ± 1.2 kg/m3
same,mass density,2899 kPa,974.7 ± 1.2 kg/m3
same,mass density,2935.4 kPa,974.6 ± 1.2 kg/m3
same,mass density,2971.1 kPa,974.8 ± 1.2 kg/m3
same,mass density,2984.1 kPa,974.9 ± 1.2 kg/m3
same,mass density,2995.2 kPa,974.8 ± 1.2 kg/m3
same,mass density,3008.5 kPa,974.8 ± 1.2 kg/m3
same,mass density,3019.8 kPa,974.7 ± 1.2 kg/m3
same,mass density,3032.8 kPa,974.8 ± 1.2 kg/m3
same,mass density,3043.7 kPa,974.8 ± 1.2 kg/m3
same,mass density,3057.4 kPa,974.8 ± 1.2 kg/m3
same,mass density,3071.1 kPa,974.7 ± 1.2 kg/m3
same,mass density,3082.4 kPa,974.9 ± 1.2 kg/m3
same,mass density,3093.6 kPa,974.9 ± 1.2 kg/m3
same,mass density,3107.5 kPa,974.7 ± 1.2 kg/m3
same,mass density,3120.8 kPa,974.9 ± 1.2 kg/m3
same,mass density,3132.5 kPa,975 ± 1.2 kg/m3
same,mass density,3143.7 kPa,975 ± 1.2 kg/m3
same,mass density,3157.8 kPa,974.8 ± 1.2 kg/m3
same,mass density,3169 kPa,974.9 ± 1.2 kg/m3
same,mass density,3182.6 kPa,974.9 ± 1.2 kg/m3
same,mass density,3194.3 kPa,974.9 ± 1.2 kg/m3
same,mass density,3207.9 kPa,974.9 ± 1.2 kg/m3
same,mass density,3219.3 kPa,975.1 ± 1.2 kg/m3
same,mass density,3233.3 kPa,974.9 ± 1.2 kg/m3
same,mass density,3245.1 kPa,974.9 ± 1.2 kg/m3
same,mass density,3259.7 kPa,974.9 ± 1.2 kg/m3
same,mass density,3271.8 kPa,975 ± 1.2 kg/m3
same,mass density,3285.5 kPa,975 ± 1.2 kg/m3
same,mass density,3298 kPa,974.9 ± 1.2 kg/m3
same,mass density,3312.4 kPa,975 ± 1.2 kg/m3
same,mass density,3324.7 kPa,975.1 ± 1.2 kg/m3
same,mass density,3339.9 kPa,975.1 ± 1.2 kg/m3
same,mass density,3353.1 kPa,975 ± 1.2 kg/m3
same,mass density,3384.1 kPa,975 ± 1.2 kg/m3
same,mass density,3463.3 kPa,975.1 ± 1.2 kg/m3
same,mass density,3495.4 kPa,975.1 ± 1.2 kg/m3
same,mass density,4052.6 kPa,975.6 ± 1.2 kg/m3
same,mass density,4071.6 kPa,975.6 ± 1.2 kg/m3
same,mass density,4087 kPa,975.6 ± 1.2 kg/m3
same,mass density,4103.5 kPa,975.6 ± 1.2 kg/m3
same,mass density,4122.2 kPa,975.5 ± 1.2 kg/m3
same,mass density,4176.9 kPa,975.4 ± 1.2 kg/m3
same,mass density,4193.2 kPa,975.6 ± 1.2 kg/m3
same,mass density,4530.6 kPa,975.9 ± 1.2 kg/m3
same,mass density,4548.8 kPa,975.8 ± 1.2 kg/m3
same,mass density,4570.3 kPa,975.9 ± 1.2 kg/m3
same,mass density,4588.6 kPa,975.9 ± 1.2 kg/m3
same,mass density,4610.6 kPa,976 ± 1.2 kg/m3
same,mass density,4632.6 kPa,975.9 ± 1.2 kg/m3
same,mass density,4650.7 kPa,976 ± 1.2 kg/m3
same,mass density,4669.3 kPa,975.9 ± 1.2 kg/m3
same,mass density,4691.8 kPa,975.9 ± 1.2 kg/m3
same,mass density,4714.6 kPa,975.9 ± 1.2 kg/m3
same,mass density,4733.6 kPa,976 ± 1.2 kg/m3
same,mass density,4753.2 kPa,975.9 ± 1.2 kg/m3
same,mass density,4776.2 kPa,975.9 ± 1.2 kg/m3
same,mass density,4795.8 kPa,976.1 ± 1.2 kg/m3
same,mass density,4819.1 kPa,975.9 ± 1.2 kg/m3
same,mass density,4838.9 kPa,976.1 ± 1.2 kg/m3
same,mass density,4862.6 kPa,976.2 ± 1.2 kg/m3
same,mass density,4886.4 kPa,976.1 ± 1.2 kg/m3
